Measurements taken from US20120012822A1, “AROMATIC COMPOUND AND METHOD FOR PRODUCING SAME” (KEIO UNIVERSITY, priority 2009, published 2012).

How the values were obtained:
[1] = Solubility in hexane; format: physicochemical
Experimental: Next, 13.5 mg of 5,7,12,14-tetrakis(2-(triethylsilyl)ethyl)pentacene-6,13-dione was added to 51.6 mg of hexane at 22° C., and allowed to completely dissolve.
Next, 9.3 mg of a 1:1 mixture of 4,6,10,12-tetrakis(2-(triethylsilyl)ethyl)anthra[2,3-b : 6,7-b′]dithiophene-5,11-dione and 4,6,10,12-tetrakis(2-(triethylsilyl)ethyl)anthra[2,3-b:7,6-b′]dithiophene-5,11-dione was added to 180.1 mg of hexane at 26° C., and allowed to completely dissolve. The solubility in hexane was 5 wt %.

CC[Si](CC)(CC)CCc1c2c(c(CC[Si](CC)(CC)CC)c3ccccc13)C(=O)c1c(c(CC[Si](CC)(CC)CC)c3ccccc3c1CC[Si](CC)(CC)CC)C2=O [5,7,12,14-tetrakis(2-(triethylsilyl)ethyl)pentacene-6,13-dione]
solubility in hexane [1]: 26 wt % | melting point: 171 to 171.5 °C
